Test results from US10280198B2, “Therapeutic agents for reducing parathyroid hormone levels” (KAI PHARMACEUTICALS, INC., priority 2009, dated 2019).
Where two headings read alike, the source gives them in different places. Square brackets hold non-standard residues; d marks the D form. Peptide text beside a SMILES is read from it. dNle = CCCC[C@@H](N)C(=O)O; dNva = CCC[C@@H](N)C(=O)O

Key:
[1] = target: T1, human calcium-sensing receptor (CaSR) (Homo sapiens, UniProt P41180); assay: In vitro cell assay in HEK-293 expressing the human calcium-sensing receptor (IP1 production); assay type: cell-based; conditions: for EC50: Table 5, IP1 production in HEK293 cells expressing human CaSR, eight concentrations in duplicate, read-out: EC50 in CaSR in vitro assay
T1 construct: expressed in transfected cells; host or cells: HEK 293T cells, transiently transfected (lipofectamine 2000); in some cases HEK293 cells stably transfected
T1 sequence (P41180 20-1078): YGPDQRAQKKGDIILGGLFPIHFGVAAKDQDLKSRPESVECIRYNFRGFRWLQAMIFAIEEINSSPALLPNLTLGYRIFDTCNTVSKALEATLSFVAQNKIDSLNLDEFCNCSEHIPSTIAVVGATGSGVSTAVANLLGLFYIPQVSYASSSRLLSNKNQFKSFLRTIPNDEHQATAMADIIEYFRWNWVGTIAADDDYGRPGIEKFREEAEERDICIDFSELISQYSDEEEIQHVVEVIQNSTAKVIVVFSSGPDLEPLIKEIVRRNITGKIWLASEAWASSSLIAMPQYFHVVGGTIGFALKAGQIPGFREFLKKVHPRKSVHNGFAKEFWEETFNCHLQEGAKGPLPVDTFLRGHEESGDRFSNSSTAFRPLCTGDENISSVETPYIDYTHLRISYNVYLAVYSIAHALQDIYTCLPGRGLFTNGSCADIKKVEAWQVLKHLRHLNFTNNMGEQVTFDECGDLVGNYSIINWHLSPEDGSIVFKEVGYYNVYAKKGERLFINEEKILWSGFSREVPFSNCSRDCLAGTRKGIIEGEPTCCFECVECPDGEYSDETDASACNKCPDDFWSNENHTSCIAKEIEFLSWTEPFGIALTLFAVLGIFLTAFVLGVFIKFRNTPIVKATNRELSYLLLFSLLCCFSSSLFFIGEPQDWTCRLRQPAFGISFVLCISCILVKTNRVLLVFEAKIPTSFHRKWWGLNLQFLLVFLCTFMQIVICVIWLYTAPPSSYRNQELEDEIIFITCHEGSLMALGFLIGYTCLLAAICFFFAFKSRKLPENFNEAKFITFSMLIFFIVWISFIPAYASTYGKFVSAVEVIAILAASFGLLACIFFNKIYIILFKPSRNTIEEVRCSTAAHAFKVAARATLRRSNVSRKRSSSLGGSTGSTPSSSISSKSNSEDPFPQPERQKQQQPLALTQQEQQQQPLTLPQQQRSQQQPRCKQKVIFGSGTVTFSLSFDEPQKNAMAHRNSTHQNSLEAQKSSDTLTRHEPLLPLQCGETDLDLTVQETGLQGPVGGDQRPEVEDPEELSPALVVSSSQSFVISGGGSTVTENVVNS
Description: The activity of a variety of peptides and conjugates was tested against the human CaSR. These studies were conducted by measuring IP1 production in HEK293 cells that express the human CaSR. Each peptide was tested in eight different concentrations, in duplicates, to establish a dose response curve. Curve fitting was performed using GraphPad Prism. In Table 5, and throughout the specification, residues provided in capital letters are L-amino acids, while lower case letters indicate D-amino acids. “Ac” indicates an acetyl capping group, “NH2” indicates an amide capping group, “Ac-bAla” is an acetylated beta-alanine, “GSH” indicates reduced glutathione, “GS” indicates oxidized glutathione, “PEG” refers to polyethylene glycol, “PEG2” and “PEGS” refer to polyethylene glycol moieties of 2 kDa and 5 kDa, respectively, and “Mpa” refers to mercaptopropionic acid.
The day after, these cells were transfected with human CaSR receptor using lipofectamine 2000 transfection reagent 24 hrs post transfection, cells were seeded in 384 well plates at 8,000 cells/well. […] In some cases, EC50 values were determined by measuring inositol monophosphate production in the HEK293 cells, stably transfected with the human calcium-sensing receptor (see Table 1).
Cells were incubated with compounds at various concentrations (1 mM or 300 μM as the highest and further ½ log serial dilutions) at 37° C. for 1.5 hrs before reaction termination. […] In brief, incubation with the compound was terminated by sequentially adding D2 labeled-IP1 and cryptate-labeled anti-IP1 in lysis buffer and further incubating at room temperature for 60 minutes. […] Non-transfected 293 cells were used as negative control.
IP1 concentrations were calculated from standard curves (generated with Graph Pad Prism ver. 4) using known concentrations of IP1 standards.

plasma PTH = assay: In vivo PTH lowering after IV bolus in isoflurane-anesthetized normal Sprague Dawley rats; design: species or system rat; conditions: Table 7; normal rats, AUC 1-4 h
Description: The peptides were administered intravenously at a dose of 0.5 mg/kg into isoflurane-anesthetized normal Sprague Dawley rats. A control group of rats was treated with saline. Blood was drawn prior to dosing and every hour for 4 hours. Rats were maintained under isoflurane anesthesia for the entire study. […] Percent PTH reduction was calculated according to the following formula: AUCcmpd treated/AUCsaline control*100.
An intravenous (IV) bolus of saline was used as a control. Plasma (K2EDTA) PTH levels were assessed prior to dosing and 1, 2, 3 and 4 hours after dosing. Rats were maintained under isoflurane anesthesia for the entire study. […] In FIG. 2B, PTH is shown as percent of the baseline pre-dose value.
A series of compounds having an L-amino acid residue substituted for a D-amino acid residue were prepared. The compounds were administered as an IV bolus to normal Sprague Dawley rats at a dose of 0.5 mg/kg. An intravenous (IV) bolus of saline was used as a control. […] Rats were maintained under isoflurane anesthesia for the entire study.

[2] = system: rat peritoneal mast cells; assay: In vitro histamine induction in rat peritoneal mast cells; assay type: cell-based
Description: To further evaluate the relationship between compound structure and histamine release, a series of compounds was prepared and assessed for their ability to trigger induction of histamine in an in vitro assay using rat peritoneal mast cells. In this assay, compounds are incubated at 10 μM for 15 minutes at 37° C. with cells isolated from peritoneal lavage of SD rats. Following incubation, cell medium is collected and histamine is determined.
Accordingly, and as can be appreciated in view of the PTH data and the histamine data described hereinabove, in one embodiment, a compound that has activity to decrease PTH level in a subject in the absence of a histamine response is contemplated. In certain embodiments, absence of a histamine response intends a dose of the compound that produces a less than 10-fold, more preferably 8-fold, still more preferably 5-fold, and even still more preferably 3-fold, increase in histamine, measured in vitro in an assay as described herein, where the fold change is determined based on histamine levels before incubation with the compound and after 15 minutes incubation with compound. In a specific embodiment, the histamine response is determined in an in vitro assay using rat peritoneal mast cells isolated from peritoneal lavage of normal Sprague Dawley rats, and where the fold change is determined based on histamine levels before incubation with the compound and after 15 minutes incubation with compound. In the studies conducted herein, the in vitro evaluation of histamine release was performed using isolated rat peritoneal mast cells isolated by peritoneal lavage using cold HBSS+25 mM HEPES pH 7.4 containing heparin (5 u/mL). Cells were washed twice in stimulation buffer (HBSS+25 mM HEPES pH 7.4) and incubated with 10 μM of compound in stimulation buffer (HBSS+25 mM HEPES pH 7.4) for 15 minutes in a 96-well plate ([…]) at 37° C. Cell supernatant was analyzed for histamine using histamine EIA kit (Cayman #589651).
For in vitro evaluation of histamine release, isolated rat peritoneal mast cells were isolated by performing peritoneal lavage using cold HBSS+25 mM HEPES pH 7.4 containing heparin (5 u/mL). Cells were washed twice in stimulation buffer (HBSS+25 mM HEPES pH 7.4) and incubated with 10 μM of compound in stimulation buffer (HBSS+25 mM HEPES pH 7.4) for 15 minutes in a 96-well plate (10^6/well) at 37° C. Cell supernatant was analyzed for histamine using histamine EIA kit (Cayman #589651).

SMILES	Histamine in vitro Fold change of non-treated at 10 uM [2]	EC50 [1]	0.5 mg/kg IV bolus % PTH AUC of saline control (plasma PTH)	other results
CC(=O)N[C@H](CS)C(=O)N[C@H](CCCNC(=N)N)C(=O)N[C@H](CCCNC(=N)N)C(=O)N[C@H](CCCNC(=N)N)C(=O)N[C@H](CCCNC(=N)N)C(=O)N[C@H](CCCNC(=N)N)C(=O)N[C@H](CCCNC(=N)N)C(=O)N[C@H](CCCNC(=N)N)C(N)=O [SEQ ID NO: 7, Ac-crrrrrrr-NH2] (Ac-[dC][dR][dR][dR][dR][dR][dR][dR]-NH2)	–	0.6 µM	–	–
CC(=O)N[C@@H](CS)C(=O)N[C@H](C)C(=O)N[C@@H](CCCNC(=N)N)C(=O)N[C@H](CCCNC(=N)N)C(=O)N[C@@H](CCCNC(=N)N)C(=O)N[C@H](C)C(=O)N[C@@H](CCCNC(=N)N)C(N)=O [SEQ ID NO: 44, Ac-CaRrRaR-NH2]	–	–	–	fold decrease in potency relative to Ac-carrrar-NH2 (SEQ ID NO:26) ([1]; human CaSR, HEK293): < 4 fold
CC(=O)N[C@@H](CS)C(=O)N[C@@H](Cc1ccc(O)cc1)C(=O)NCC(=O)N[C@@H](CCCNC(=N)N)C(=O)N[C@@H](CCCCN)C(=O)N[C@@H](CCCCN)C(=O)N[C@@H](CCCNC(=N)N)C(=O)N[C@@H](CCCNC(=N)N)C(=O)N[C@@H](CCC(N)=O)C(=O)N[C@@H](CCCNC(=N)N)C(=O)N[C@@H](CCCNC(=N)N)C(=O)N[C@@H](CCCNC(=N)N)C(N)=O [SEQ ID NO: 47]	–	4.5 µM	–	–
CC(=O)N[C@@H](Cc1ccc(O)cc1)C(=O)NCC(=O)N[C@@H](CCCNC(=N)N)C(=O)N[C@@H](CCCCN)C(=O)N[C@@H](CCCCN)C(=O)N[C@@H](CCCNC(=N)N)C(=O)N[C@@H](CCCNC(=N)N)C(=O)N[C@@H](CCC(N)=O)C(=O)N[C@@H](CCCNC(=N)N)C(=O)N[C@@H](CCCNC(=N)N)C(=O)N[C@@H](CCCNC(=N)N)C(N)=O [SEQ ID NO: 48]	–	16 µM	–	–
CC(=O)N[C@H](CS)C(=O)N[C@H](Cc1ccc(O)cc1)C(=O)NCC(=O)N[C@H](CCCNC(=N)N)C(=O)N[C@H](CCCCN)C(=O)N[C@H](CCCCN)C(=O)N[C@H](CCCNC(=N)N)C(=O)N[C@H](CCCNC(=N)N)C(=O)N[C@H](CCC(N)=O)C(=O)N[C@H](CCCNC(=N)N)C(=O)N[C@H](CCCNC(=N)N)C(=O)N[C@H](CCCNC(=N)N)C(N)=O [SEQ ID NO: 50, Ac-cygrkkrrqrrr-NH2]	–	2 µM	–	–
CC(=O)N[C@H](CS)C(=O)N[C@@H](C(=O)N[C@H](CCCNC(=N)N)C(=O)N[C@H](CCCNC(=N)N)C(=O)N[C@H](CCCNC(=N)N)C(=O)N[C@@H](C(=O)N[C@H](CCCNC(=N)N)C(N)=O)C(C)C)C(C)C [SEQ ID NO: 65, Ac-cvrrrvr-NH2] (Ac-[dC][dV][dR][dR][dR][dV][dR]-NH2)	–	35 µM	–	–
CC(=O)N[C@H](CS)C(=O)N[C@H](C)C(=O)N[C@H](CCCNC(=N)N)C(=O)N[C@H](CCCNC(=N)N)C(=O)N[C@H](CCCNC(=N)N)C(=O)N[C@H](C)C(=O)N[C@H](CCCNC(=N)N)C(=O)O [SEQ ID NO: 74, Ac-carrrar-OH]	–	31 µM	–	–
CCC[C@@H](NC(=O)[C@@H](CCCNC(=N)N)NC(=O)[C@@H](CCCNC(=N)N)NC(=O)[C@@H](CCCNC(=N)N)NC(=O)[C@@H](CCC)NC(=O)[C@@H](CS)NC(C)=O)C(=O)N[C@H](CCCNC(=N)N)C(N)=O [SEQ ID NO: 132, Ac-c-dNva-rrr-dNva-r-NH2] (Ac-[dC][dNva][dR][dR][dR][dNva][dR]-NH2)	–	–	27%	Histamine in vitro Fold change of non-treated at 10 uM ([2]; Table 9, 10 μM, 15 minutes, 37° C.): 4.1 fold
CCCC[C@@H](NC(=O)[C@@H](CCCNC(=N)N)NC(=O)[C@@H](C)NC(=O)[C@@H](CCCNC(=N)N)NC(=O)[C@@H](CCCNC(=N)N)NC(=O)[C@@H](CS)NC(C)=O)C(=O)N[C@H](CCCNC(=N)N)C(N)=O [SEQ ID NO: 133, Ac-crrar-dNle-r-NH2] (Ac-[dC][dR][dR][dA][dR][dNle][dR]-NH2)	4.3 fold	–	26%	–

Second part, led by results:

Histamine in vitro Fold change of non-treated at 10 uM [2]	SMILES	EC50 [1]	0.5 mg/kg IV bolus % PTH AUC of saline control (plasma PTH)	other results
2.2 fold	CCCC[C@@H](NC(=O)[C@@H](CS)NC(C)=O)C(=O)N[C@H](CCCNC(=N)N)C(=O)N[C@H](CCCNC(=N)N)C(=O)N[C@H](CCCNC(=N)N)C(=O)N[C@H](C)C(=O)N[C@H](CCCNC(=N)N)C(N)=O [SEQ ID NO: 134, Ac-c-dNle-rrrar-NH2] (Ac-[dC][dNle][dR][dR][dR][dA][dR]-NH2)	–	10%	–
1.1 fold	CCC[C@@H](NC(=O)[C@@H](CCCNC(=N)N)NC(=O)[C@@H](C)NC(=O)[C@@H](CCCNC(=N)N)NC(=O)[C@@H](CCCNC(=N)N)NC(=O)[C@@H](CS)NC(C)=O)C(=O)N[C@H](CCCNC(=N)N)C(N)=O [SEQ ID NO: 135, Ac-crrar-dNva-r-NH2] (Ac-[dC][dR][dR][dA][dR][dNva][dR]-NH2)	–	8%	–
2.1 fold	CCC[C@@H](NC(=O)[C@@H](CS)NC(C)=O)C(=O)N[C@H](CCCNC(=N)N)C(=O)N[C@H](CCCNC(=N)N)C(=O)N[C@H](CCCNC(=N)N)C(=O)N[C@H](C)C(=O)N[C@H](CCCNC(=N)N)C(N)=O [SEQ ID NO: 136, Ac-c-dNva-rrrar-NH2] (Ac-[dC][dNva][dR][dR][dR][dA][dR]-NH2)	–	7%	–
